The values below come from US20230265116A1, “DEGRADATION OF (EGFR) BY CONJUGATION OF EGFR INHIBITORS WITH E3 LIGASE LIGAND AND METHODS OF USE” (BEIGENE, LTD., priority 2020, published 2023).

Molecules are shown by their SMILES.

In test [1] the test system is EGFR Del19/T790M/C797S (BaF3-DTC cells). Kind of test: EGFR degradation HTRF assay, BaF3-DTC cells. As to conditions: 16h treatment; for DTC Dmax (%): maximum percentage of degradation; for DC50: read-out: DTC DC50. In kind it is cell-based. In outline:
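BaF3 (WT, Del19/T790M/C797S) and HCC827 cells exposed 16 h at 37 °C, 5% CO2 to compounds in 0.2% DMSO medium, 8 doses from 10 uM top, 5-fold steps. Lysates read by HTRF (665/620 nm); degradation % vs DMSO control, DC50 from four-parameter fit, Dmax as maximal degradation.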

Test [2] concerns the target T1, EGFR L858R/T790M/C797S (BaF3-LTC cells) (Homo sapiens, UniProt P00533, C797S/L858R/T790M).
T1 construct: expressed in transfected cells; host or cells: BaF3
Kind of test: EGFR degradation HTRF assay, BaF3-LTC cells. The test is classed as cell-based. The following applies: BaF3-LTC, 16h treatment; for Dmax: maximum percentage of degradation, read-out: LTC Dmax (%); for DC50: read-out: LTC DC50. In outline: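 EGFR remaining after a 16 h, 37 °C exposure (8 doses, 5-fold steps from 10 uM final, 0.2% DMSO) was quantified by HTRF antibodies in cell lysate. Percent inhibition relative to DMSO control was fitted by four-parameter logistic to give DC50; Dmax denotes maximal degradation.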

T1 sequence (P00533 25-1210 T790M/C797S/L858R): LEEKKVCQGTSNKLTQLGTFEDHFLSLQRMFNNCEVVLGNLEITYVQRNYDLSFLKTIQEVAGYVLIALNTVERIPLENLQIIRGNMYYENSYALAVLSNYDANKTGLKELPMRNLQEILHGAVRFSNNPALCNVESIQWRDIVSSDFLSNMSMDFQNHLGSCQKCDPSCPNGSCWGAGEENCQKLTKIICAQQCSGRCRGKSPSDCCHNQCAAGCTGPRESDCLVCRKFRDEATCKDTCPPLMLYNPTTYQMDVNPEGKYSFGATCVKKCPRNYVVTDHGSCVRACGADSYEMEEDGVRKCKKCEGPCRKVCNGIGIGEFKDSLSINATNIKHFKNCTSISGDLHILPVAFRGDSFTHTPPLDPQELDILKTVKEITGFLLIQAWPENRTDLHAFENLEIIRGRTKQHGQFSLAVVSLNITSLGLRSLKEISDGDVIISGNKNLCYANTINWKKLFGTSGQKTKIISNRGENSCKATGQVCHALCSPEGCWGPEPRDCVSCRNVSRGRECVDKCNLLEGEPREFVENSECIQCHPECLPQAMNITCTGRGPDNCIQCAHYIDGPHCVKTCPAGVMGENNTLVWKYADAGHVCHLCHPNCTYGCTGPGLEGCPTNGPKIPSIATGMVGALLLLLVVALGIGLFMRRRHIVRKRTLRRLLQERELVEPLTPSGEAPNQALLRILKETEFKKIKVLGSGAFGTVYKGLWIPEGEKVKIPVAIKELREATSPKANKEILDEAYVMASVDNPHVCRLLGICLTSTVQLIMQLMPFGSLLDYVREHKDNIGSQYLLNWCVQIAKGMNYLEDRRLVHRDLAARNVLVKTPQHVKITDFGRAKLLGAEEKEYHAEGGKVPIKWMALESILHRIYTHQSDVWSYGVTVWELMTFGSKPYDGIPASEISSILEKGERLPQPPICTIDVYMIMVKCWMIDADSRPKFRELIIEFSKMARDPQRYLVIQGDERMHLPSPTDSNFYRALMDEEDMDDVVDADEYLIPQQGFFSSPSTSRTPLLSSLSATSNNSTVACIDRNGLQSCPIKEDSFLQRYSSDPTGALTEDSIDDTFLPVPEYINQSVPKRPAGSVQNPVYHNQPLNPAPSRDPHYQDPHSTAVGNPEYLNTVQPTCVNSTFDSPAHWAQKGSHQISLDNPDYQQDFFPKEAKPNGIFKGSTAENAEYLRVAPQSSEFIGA

On to `CCc1cc(Nc2ncc(Br)c(Nc3ccc4nccnc4c3P(C)(C)=O)n2)c(OC)cc1N1CCC(N2CCN(CC3CCN(c4ccc5c(c4)CN(C4CCC(=O)NC4=O)C5=O)CC3)CC2)CC1` (centres unmarked) [Example 244, 3-(5-(4-((4-(1-(4-((5-bromo-4-((5-(dimethylphosphoryl)quinoxalin-6-yl)amino)pyrimidin-2-yl)amino)-2-ethyl-5-methoxyphenyl)piperidin-4-yl)piperazin-1-yl)methyl)piperidin-1-yl)-1-oxoisoindolin-2-yl)piperidine-2,6-dione], for which, in test [1], the “DTC Dmax (%)” value is 88.74% and the DC50 came out at 5.6 nM. For the same compound, in test [2], the Dmax came out at 89.3% and the DC50 was 13 nM.

As to `CCc1cc(Nc2ncc(Br)c(Nc3ccc4nccnc4c3P(C)(C)=O)n2)c(OC)cc1N1CCC(N2CCN(C[C@H]3C[C@H](N(C)c4ccc(C5CCC(=O)NC5=O)cc4)C3)CC2)CC1` (some centres unmarked) [Example 245, 3-(4-(((1r,3r)-3-((4-(1-(4-((5-bromo-4-((5-(dimethylphosphoryl)quinoxalin-6-yl)amino)pyrimidin-2-yl)amino)-2-ethyl-5-methoxyphenyl)piperidin-4-yl)piperazin-1-yl)methyl)cyclobutyl)(methyl)amino)phenyl)piperidine-2,6-dione], in test [1], the “DTC Dmax (%)” value is 87.52% and the DC50 came out at 11.9 nM. In addition, in test [2], the Dmax is 81.4% and the DC50 stood at 30.1 nM.

For the compound `CCc1cc(Nc2ncc(Br)c(Nc3ccc4nccnc4c3P(C)(C)=O)n2)c(OC)cc1N1CCC(N2CCN(C(=O)C3CN(c4ccc5c(c4)CN(C4CCC(=O)NC4=O)C5=O)C3)CC2)CC1` (centres unmarked) [Example 246, 3-(5-(3-(4-(1-(4-((5-bromo-4-((5-(dimethylphosphoryl)quinoxalin-6-yl)amino)pyrimidin-2-yl)amino)-2-ethyl-5-methoxyphenyl)piperidin-4-yl)piperazine-1-carbonyl)azetidin-1-yl)-1-oxoisoindolin-2-yl)piperidine-2,6-dione], in test [1], the “DTC Dmax (%)” value was 93.85% and the DC50 is 1.51 nM. In addition, in test [2], the Dmax was determined as 91% and the DC50 is 4.47 nM.

As to `CCc1cc(Nc2ncc(Br)c(Nc3ccc4nccnc4c3P(C)(C)=O)n2)c(OC)cc1N1CCC(N2CCN(CCNc3cccc4c3CN(C3CCC(=O)NC3=O)C4=O)CC2)CC1` (centres unmarked) [Example 248, 3-(4-((2-(4-(1-(4-((5-bromo-4-((5-(dimethylphosphoryl)quinoxalin-6-yl)amino)pyrimidin-2-yl)amino)-2-ethyl-5-methoxyphenyl)piperidin-4-yl)piperazin-1-yl)ethyl)amino)-1-oxoisoindolin-2-yl)piperidine-2,6-dione], in test [1], the “DTC Dmax (%)” value was 89.62% and the DC50 was 4.41 nM. Besides, in test [2], the maximal degradation (Dmax) worked out at 89.4% and the 50% degradation concentration (DC50) amounted to 9.39 nM.

For the compound `CCc1cc(Nc2ncc(Br)c(Nc3ccc4nccnc4c3P(C)(C)=O)n2)c(OC)cc1N1CCC(N2CCN(CCN(C)c3ccc4c(c3)C(=O)N(C3CCC(=O)NC3=O)C4)CC2)CC1` (centres unmarked) [Example 249, 3-(6-((2-(4-(1-(4-((5-bromo-4-((5-(dimethylphosphoryl)quinoxalin-6-yl)amino)pyrimidin-2-yl)amino)-2-ethyl-5-methoxyphenyl)piperidin-4-yl)piperazin-1-yl)ethyl)(methyl)amino)-1-oxoisoindolin-2-yl)piperidine-2,6-dione], in test [1], the “DTC Dmax (%)” value was 90.4% and the DC50 amounted to 3.01 nM. Further, in test [2], the Dmax was found to be 86.7% and the DC50 amounted to 28.6 nM.

As to `CCc1cc(Nc2ncc(Br)c(Nc3ccc4nccnc4c3P(C)(C)=O)n2)c(OC)cc1N1CCC(N2CCN(C3CN(c4ccc(C5CCC(=O)NC5=O)cc4)C3)CC2)CC1` (centres unmarked) [Example 250], in test [1], the “DTC Dmax (%)” value was 75.19% and the DC50 worked out at 11.1 nM. Also, in test [2], the Dmax was found to be 73.8% and the DC50 came to 24.8 nM.

Take `CCc1cc(Nc2ncc(Br)c(Nc3ccc4nccnc4c3P(C)(C)=O)n2)c(OC)cc1N1CCC(N2CCN(CC3CN(c4ccc(C5CCC(=O)NC5=O)c(C#N)c4)C3)CC2)CC1` (centres unmarked) [Example 251, 5-(3-((4-(1-(4-((5-bromo-4-((5-(dimethylphosphoryl)quinoxalin-6-yl)amino)pyrimidin-2-yl)amino)-2-ethyl-5-methoxyphenyl)piperidin-4-yl)piperazin-1-yl)methyl)azetidin-1-yl)-2-(2,6-dioxopiperidin-3-yl)benzonitrile]: in test [1], the “DTC Dmax (%)” value came out at 82.01% and the DC50 stood at 7.72 nM. Also, in test [2], the Dmax was found to be 87% and the DC50 is 2.93 nM.

For the compound `CCc1cc(Nc2ncc(Br)c(Nc3ccc4nccnc4c3P(C)(C)=O)n2)c(OC)cc1N1CCC(N2CCN(CC3CN(c4ccc(C5CCC(=O)NC5=O)c(F)c4)C3)CC2)CC1` (centres unmarked) [Example 252, 3-(4-(3-((4-(1-(4-((5-bromo-4-((5-(dimethylphosphoryl)quinoxalin-6-yl)amino)pyrimidin-2-yl)amino)-2-ethyl-5-methoxyphenyl)piperidin-4-yl)piperazin-1-yl)methyl)azetidin-1-yl)-2-fluorophenyl)piperidine-2,6-dione], in test [1], the “DTC Dmax (%)” value is 85.86% and the half-maximal degradation concentration (DC50) is 17.1 nM. Further, in test [2], the Dmax came out at 80.8% and the DC50 was found to be 34.8 nM.

For the compound `CCc1cc(Nc2ncc(Br)c(Nc3ccc4nccnc4c3P(C)(C)=O)n2)c(OC)cc1N1CCC(N2CCN(CC3CN(c4cc(F)c(C5CCC(=O)NC5=O)c(F)c4)C3)CC2)CC1` (centres unmarked) [Example 253, 3-(4-(3-((4-(1-(4-((5-bromo-4-((5-(dimethylphosphoryl)quinoxalin-6-yl)amino)pyrimidin-2-yl)amino)-2-ethyl-5-methoxyphenyl)piperidin-4-yl)piperazin-1-yl)methyl)azetidin-1-yl)-2,6-difluorophenyl)piperidine-2,6-dione], in test [1], the “DTC Dmax (%)” value turned out to be 94.79% and the DC50 is 7.09 nM. In test [2], the Dmax came out at 86.3% and the DC50 turned out to be 19.8 nM.

`CCc1cc(Nc2ncc(Br)c(Nc3ccc4nc(C)ccc4c3P(C)(C)=O)n2)c(OC)cc1N1CCC(N2CCN(CCN(C)c3cccc4c3CN(C3CCC(=O)NC3=O)C4=O)CC2)CC1` (centres unmarked) [Example 256, 3-(4-((2-(4-(1-(4-((5-bromo-4-((5-(dimethylphosphoryl)-2-methylquinolin-6-yl)amino)pyrimidin-2-yl)amino)-2-ethyl-5-methoxyphenyl)piperidin-4-yl)piperazin-1-yl)ethyl)(methyl)amino)-1-oxoisoindolin-2-yl)piperidine-2,6-dione]: in test [1], the “DTC Dmax (%)” value came out at 94.38% and the DC50 turned out to be 1.78 nM. In test [2], the Dmax amounted to 91.8% and the DC50 amounted to 7.84 nM.

Regarding `CCc1cc(Nc2ncc(Br)c(Nc3ccc4nc(C)ccc4c3P(C)(C)=O)n2)c(OC)cc1N1CCC(N2CCN(CCc3ccc4nn(C5CCC(=O)NC5=O)cc4c3)CC2)CC1` (centres unmarked) [Example 257, 3-(5-(2-(4-(1-(4-((5-bromo-4-((5-(dimethylphosphoryl)-2-methylquinolin-6-yl)amino)pyrimidin-2-yl)amino)-2-ethyl-5-methoxyphenyl)piperidin-4-yl)piperazin-1-yl)ethyl)-2H-indazol-2-yl)piperidine-2,6-dione], in test [1], the “DTC Dmax (%)” value was 93.75% and the DC50 worked out at 3.94 nM. In test [2], the maximal degradation (Dmax) came out at 90.7% and the DC50 was 17.4 nM.

One may read the DC50 as the concentration giving 50% degradation. Usually Dmax stands for the largest share of the target that was removed.
